Calls of active or inactive are those of the source.

Assay [1] is described as follows: A cytotoxicity screen of small molecule inhibitors of the PhoP region in Salmonella typhi identified in the primary screen. [Related pubchem assays: 1850, 1864, 1985 ]. The format is functional.
In assay [2] the target is T1, Endoribonuclease toxin MazF (Escherichia coli K-12, UniProt P0AE70).
T1 sequence (P0AE70 whole entry): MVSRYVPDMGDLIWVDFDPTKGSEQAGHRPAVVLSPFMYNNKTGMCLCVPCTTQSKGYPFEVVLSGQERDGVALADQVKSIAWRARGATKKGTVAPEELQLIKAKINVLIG
The experiment in a line: activation of MazEF endoribonuclease cleavage – biochemical, fluorescence, single-stranded RNA substrate, uHTS hits, dose response (AID 588481). The class given is functional.

In assay [3] the target is T1, Endoribonuclease toxin MazF. In words: substrate-only fluorescence increase artefacts – biochemical, single-stranded RNase substrate, counter-screen for MazEF activator project, dose response (AID 588502). The format is functional. A general note: The purpose of a counterscreen is to sort out artefacts and off-target activity.
The target in assay [4] is Eukaryotic translation initiation factor 4E (Mus musculus, UniProt P63073). In words: blockers of eIF4G binding by eIF4E – biochemical, TR-FRET, dose response (AID 855).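 Note: potency for disrupting eIF4E binding to eIF4GI seen as loss of FRET.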 The class given is functional. Background: TR-FRET usually uses a lanthanide donor and a delayed reading to cut background.
For assay [5], the target named is T2, Zinc finger protein mex-5 (Caenorhabditis elegans, UniProt Q9XUB2).
T2 sequence (Q9XUB2 whole entry): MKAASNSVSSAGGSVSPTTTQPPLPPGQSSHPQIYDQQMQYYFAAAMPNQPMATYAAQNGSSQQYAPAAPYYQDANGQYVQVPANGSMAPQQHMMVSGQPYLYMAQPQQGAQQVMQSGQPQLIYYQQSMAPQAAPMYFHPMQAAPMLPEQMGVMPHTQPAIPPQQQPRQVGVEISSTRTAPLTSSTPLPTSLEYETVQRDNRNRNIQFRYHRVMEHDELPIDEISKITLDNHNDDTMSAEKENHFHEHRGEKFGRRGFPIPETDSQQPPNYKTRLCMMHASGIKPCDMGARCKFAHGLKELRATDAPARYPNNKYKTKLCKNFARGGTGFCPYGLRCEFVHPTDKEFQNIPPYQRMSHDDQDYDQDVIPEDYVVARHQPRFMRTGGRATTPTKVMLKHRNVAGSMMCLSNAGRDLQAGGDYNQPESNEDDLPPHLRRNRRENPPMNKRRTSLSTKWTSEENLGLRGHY
The experiment in a line: potency of MEX-5 RNA-binding blockers – biochemical, C. elegans, fluorescence polarization, dose response (AID 1960). (In general: Fluorescence polarisation rises when a labelled molecule tumbles more slowly, as on binding a larger partner.)

For assay [6], the target named is T3, RNA-binding protein pos-1 (Caenorhabditis elegans, UniProt G5EF15).
T3 sequence (G5EF15 whole entry): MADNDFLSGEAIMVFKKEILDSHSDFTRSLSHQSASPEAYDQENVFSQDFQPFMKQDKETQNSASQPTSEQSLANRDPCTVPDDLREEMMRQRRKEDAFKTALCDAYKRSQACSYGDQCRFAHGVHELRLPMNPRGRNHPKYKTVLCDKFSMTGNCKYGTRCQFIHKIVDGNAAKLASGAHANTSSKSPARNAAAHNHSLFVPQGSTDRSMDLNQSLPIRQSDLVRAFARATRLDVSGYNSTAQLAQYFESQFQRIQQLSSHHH
In words: disruptors of C. elegans POS-1 RNA interaction – biochemical, fluorescence polarization, dose response (AID 1964).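 Note: purified POS-1 fused to maltose binding protein made in E. coli; potency of compounds blocking POS-1 binding to fluorescent RNA.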

Assay [7] concerns the target Peroxisome proliferator-activated receptor gamma/Nuclear receptor coactivator 1 (Homo sapiens, UniProt P37231). The format is functional.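 Note: agonist potency as compounds enhance coactivator SRC-1 recruitment to PPARgamma.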
Assay [8] deals with Peroxisome proliferator-activated receptor gamma/Nuclear receptor coactivator 3 (Homo sapiens, UniProt P37231). The class given is functional.
Assay [9] has as its target Peroxisome proliferator-activated receptor gamma/Nuclear receptor coactivator 2 (Homo sapiens, UniProt P37231). The format is functional.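 Note: agonist potency for raising coactivator recruitment to the receptor.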
Assay [10] in a line: Luminescence Cell-Based Dose Retest to Confirm Inhibitors of Cancer Stem Cells. [Related pubchem assays (depositor defined):AID2717, AID2721]. The format is functional. To be noted: Homo sapiens.
Assay [11] in a line: viability of HCT116 lacking mutant beta-catenin – cell-based, human colon tumor, dose response (AID 1045).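 Note: HCT116 colon tumor cells with beta catenin knocked out; cells exposed to compound for 60 hours.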 The class given is functional.
Assay [12] can be described thus: non-specific 3'UTR reporter inhibition in Clone20-Shn3RL – cell-based, Renilla luciferase, cherry-picked, counter-screen for Shn3 inhibitor project, dose response (AID 624133). The format is functional.
A short description of assay [13]: microbe, parasite or virus in culture. The format is functional. The following applies: Mycobacterium tuberculosis.
The nature of assay [14]: loss of viability in HepG2 cells – cell-based, CellTiter-Glo, cherry-picked, cytotoxicity control for Shn3 inhibitor project, dose response (AID 624134). The class given is functional.
A short description of assay [15]: reduction of Shn3 3'UTR-driven luciferase in osteoblasts – cell-based, Clone20 osteoblasts, firefly luciferase, cherry-picked, dose response (AID 624132).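 Note: firefly luciferase luminescence from reporter carrying the Shn3 3'UTR in osteoblasts.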 The class given is functional.
For the next assay, the system named is INS1. The experiment in a line: INS-1E survival protection against cytokine death – cell-based, luminescence, retest, dose response (AID 449756).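 Note: cell death triggered by IL-1 beta plus TNF-alpha plus IFN-gamma mixture; protective hits raise ATP signal compared with cytokine alone wells.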 The following applies: Rattus norvegicus. The format is functional.
The nature of assay [16]: viability of PTEN-deleted HCT116 cells – cell-based, HCT116 PTEN knockout, dose response (AID 1047).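 Note: HCT116 colon tumor cells with PTEN knocked out; cells exposed to compound for 60 hours before readout; potency for loss of cell viability measured by luminescence.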 The class given is functional.
Assay [17] has as its target T4, Polyadenylate-binding protein 1 (Homo sapiens, UniProt P11940). The experiment in a line: MLLE binding blockers, Cy5 peptide tracer – biochemical, fluorescence polarization, Cy5-PAM2 peptide, secondary, miRNA deadenylation inhibitor project, dose response (AID 602260). The class given is functional. To be noted: read-out: IC50_Mean.
In assay [18] the target is T4, Polyadenylate-binding protein 1. In words: MLLE domain peptide-binding blockers, IC50 – biochemical, fluorescence polarization, FITC-PAM2 peptide, dose response (AID 602259). The format is functional. To be noted: read-out: IC50_Mean.
Assay [19] deals with Induced myeloid leukemia cell differentiation protein Mcl-1 (Homo sapiens, UniProt Q07820). The format is functional.
The target of a further assay is Cytochrome P450 2C19 (Homo sapiens, UniProt P33261). In words: Cytochrome panel assay with activity outcomes. Panel member name: p450-cyp2c19 Compounds with AC50 equal or less than 10 uM are considered active. To be noted: read-out: AC50. The class given is functional.
The next assay concerns the target T5, Cytochrome P450 1A2 (Homo sapiens, UniProt P05177).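 Note: PubChem cytochrome P450 panel assay, CYP1A2 panel member.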
T5 sequence (P05177 whole entry): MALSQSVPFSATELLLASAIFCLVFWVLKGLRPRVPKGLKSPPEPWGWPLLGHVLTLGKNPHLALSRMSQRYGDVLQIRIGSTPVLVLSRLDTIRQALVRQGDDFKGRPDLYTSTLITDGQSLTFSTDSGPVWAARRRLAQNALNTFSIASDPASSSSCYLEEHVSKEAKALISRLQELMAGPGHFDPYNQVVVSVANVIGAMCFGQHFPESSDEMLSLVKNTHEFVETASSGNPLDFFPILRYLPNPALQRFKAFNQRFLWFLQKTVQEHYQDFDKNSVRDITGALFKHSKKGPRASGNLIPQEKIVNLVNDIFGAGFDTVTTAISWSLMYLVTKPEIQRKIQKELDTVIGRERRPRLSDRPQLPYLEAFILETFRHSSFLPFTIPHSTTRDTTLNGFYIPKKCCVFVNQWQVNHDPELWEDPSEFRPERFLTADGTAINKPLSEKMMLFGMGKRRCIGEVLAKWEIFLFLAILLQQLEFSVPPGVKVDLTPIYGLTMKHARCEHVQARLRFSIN

Another assay deals with Cytochrome P450 3A4 (Homo sapiens, UniProt P08684).

T4 sequence (P11940 whole entry, the tested form may be a part): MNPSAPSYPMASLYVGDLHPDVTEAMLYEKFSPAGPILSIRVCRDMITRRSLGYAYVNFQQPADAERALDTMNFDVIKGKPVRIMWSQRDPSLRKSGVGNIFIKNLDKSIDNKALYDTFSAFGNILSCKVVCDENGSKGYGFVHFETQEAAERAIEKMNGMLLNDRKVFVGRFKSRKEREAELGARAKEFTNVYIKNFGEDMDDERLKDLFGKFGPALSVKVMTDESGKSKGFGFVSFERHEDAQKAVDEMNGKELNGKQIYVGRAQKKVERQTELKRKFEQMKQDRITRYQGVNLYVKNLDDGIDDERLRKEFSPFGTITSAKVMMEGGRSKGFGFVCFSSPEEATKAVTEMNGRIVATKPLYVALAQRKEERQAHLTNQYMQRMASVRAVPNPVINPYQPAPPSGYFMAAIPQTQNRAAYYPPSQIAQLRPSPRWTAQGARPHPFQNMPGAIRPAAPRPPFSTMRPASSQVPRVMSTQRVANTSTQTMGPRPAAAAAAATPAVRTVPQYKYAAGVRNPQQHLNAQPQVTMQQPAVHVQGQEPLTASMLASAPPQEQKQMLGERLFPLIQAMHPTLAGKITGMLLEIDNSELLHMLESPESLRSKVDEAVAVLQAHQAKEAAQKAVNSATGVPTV
Sequence of Peroxisome proliferator-activated receptor gamma/Nuclear receptor coactivator 2 (P37231 whole entry): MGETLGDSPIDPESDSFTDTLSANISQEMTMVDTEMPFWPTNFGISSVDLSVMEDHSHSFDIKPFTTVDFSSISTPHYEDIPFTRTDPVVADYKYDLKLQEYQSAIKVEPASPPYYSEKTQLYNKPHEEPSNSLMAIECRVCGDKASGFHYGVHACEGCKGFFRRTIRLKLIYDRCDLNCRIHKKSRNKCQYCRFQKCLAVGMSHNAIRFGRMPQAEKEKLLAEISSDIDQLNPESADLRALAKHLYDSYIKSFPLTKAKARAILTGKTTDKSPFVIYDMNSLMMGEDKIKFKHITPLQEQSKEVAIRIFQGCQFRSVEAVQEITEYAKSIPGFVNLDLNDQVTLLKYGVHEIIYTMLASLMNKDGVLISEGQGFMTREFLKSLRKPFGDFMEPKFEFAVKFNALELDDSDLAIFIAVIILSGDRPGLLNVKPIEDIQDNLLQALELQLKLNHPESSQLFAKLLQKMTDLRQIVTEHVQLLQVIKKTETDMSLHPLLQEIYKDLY
Sequence of Peroxisome proliferator-activated receptor gamma/Nuclear receptor coactivator 2 (Q15596 whole entry, further chain): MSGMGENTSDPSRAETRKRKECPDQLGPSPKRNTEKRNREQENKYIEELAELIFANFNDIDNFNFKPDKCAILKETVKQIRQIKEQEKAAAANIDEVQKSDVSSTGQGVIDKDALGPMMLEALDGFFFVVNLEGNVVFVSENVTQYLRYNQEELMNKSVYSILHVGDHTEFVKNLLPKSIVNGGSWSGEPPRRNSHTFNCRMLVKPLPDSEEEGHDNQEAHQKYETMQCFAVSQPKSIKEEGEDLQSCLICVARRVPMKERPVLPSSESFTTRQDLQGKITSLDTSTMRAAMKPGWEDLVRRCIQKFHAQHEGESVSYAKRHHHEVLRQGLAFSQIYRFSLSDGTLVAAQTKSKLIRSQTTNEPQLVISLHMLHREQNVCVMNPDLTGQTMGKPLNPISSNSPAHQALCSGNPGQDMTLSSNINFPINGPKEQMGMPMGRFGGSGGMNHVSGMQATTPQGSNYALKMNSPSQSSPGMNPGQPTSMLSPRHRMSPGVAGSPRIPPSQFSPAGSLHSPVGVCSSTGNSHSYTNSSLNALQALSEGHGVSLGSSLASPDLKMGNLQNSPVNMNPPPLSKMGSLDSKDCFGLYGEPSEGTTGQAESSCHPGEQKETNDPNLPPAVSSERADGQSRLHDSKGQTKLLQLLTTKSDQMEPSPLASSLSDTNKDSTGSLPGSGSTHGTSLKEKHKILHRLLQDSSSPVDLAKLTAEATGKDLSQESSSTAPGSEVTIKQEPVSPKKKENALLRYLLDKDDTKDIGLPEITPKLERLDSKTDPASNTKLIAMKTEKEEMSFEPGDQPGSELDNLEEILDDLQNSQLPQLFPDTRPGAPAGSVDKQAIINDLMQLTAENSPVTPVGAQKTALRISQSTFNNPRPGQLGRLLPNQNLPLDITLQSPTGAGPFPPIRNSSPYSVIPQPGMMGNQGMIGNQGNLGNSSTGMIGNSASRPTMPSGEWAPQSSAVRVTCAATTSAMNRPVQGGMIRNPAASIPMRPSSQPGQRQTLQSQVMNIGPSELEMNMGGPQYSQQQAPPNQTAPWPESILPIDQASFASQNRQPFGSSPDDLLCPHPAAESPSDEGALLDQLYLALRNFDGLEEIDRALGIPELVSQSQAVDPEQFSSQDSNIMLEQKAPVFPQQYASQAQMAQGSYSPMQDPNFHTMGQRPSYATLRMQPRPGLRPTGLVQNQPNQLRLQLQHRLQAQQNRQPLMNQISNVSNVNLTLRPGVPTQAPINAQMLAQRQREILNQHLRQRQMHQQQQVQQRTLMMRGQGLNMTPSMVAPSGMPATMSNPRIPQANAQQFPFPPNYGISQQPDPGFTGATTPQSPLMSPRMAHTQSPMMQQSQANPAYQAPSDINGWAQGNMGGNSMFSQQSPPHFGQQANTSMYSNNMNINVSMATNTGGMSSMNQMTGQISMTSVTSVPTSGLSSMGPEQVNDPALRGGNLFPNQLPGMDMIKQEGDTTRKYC
Sequence of Peroxisome proliferator-activated receptor gamma/Nuclear receptor coactivator 3 (P37231 whole entry): as the sequence (P37231 whole entry) above
Sequence of Peroxisome proliferator-activated receptor gamma/Nuclear receptor coactivator 3 (Q9Y6Q9 whole entry, further chain): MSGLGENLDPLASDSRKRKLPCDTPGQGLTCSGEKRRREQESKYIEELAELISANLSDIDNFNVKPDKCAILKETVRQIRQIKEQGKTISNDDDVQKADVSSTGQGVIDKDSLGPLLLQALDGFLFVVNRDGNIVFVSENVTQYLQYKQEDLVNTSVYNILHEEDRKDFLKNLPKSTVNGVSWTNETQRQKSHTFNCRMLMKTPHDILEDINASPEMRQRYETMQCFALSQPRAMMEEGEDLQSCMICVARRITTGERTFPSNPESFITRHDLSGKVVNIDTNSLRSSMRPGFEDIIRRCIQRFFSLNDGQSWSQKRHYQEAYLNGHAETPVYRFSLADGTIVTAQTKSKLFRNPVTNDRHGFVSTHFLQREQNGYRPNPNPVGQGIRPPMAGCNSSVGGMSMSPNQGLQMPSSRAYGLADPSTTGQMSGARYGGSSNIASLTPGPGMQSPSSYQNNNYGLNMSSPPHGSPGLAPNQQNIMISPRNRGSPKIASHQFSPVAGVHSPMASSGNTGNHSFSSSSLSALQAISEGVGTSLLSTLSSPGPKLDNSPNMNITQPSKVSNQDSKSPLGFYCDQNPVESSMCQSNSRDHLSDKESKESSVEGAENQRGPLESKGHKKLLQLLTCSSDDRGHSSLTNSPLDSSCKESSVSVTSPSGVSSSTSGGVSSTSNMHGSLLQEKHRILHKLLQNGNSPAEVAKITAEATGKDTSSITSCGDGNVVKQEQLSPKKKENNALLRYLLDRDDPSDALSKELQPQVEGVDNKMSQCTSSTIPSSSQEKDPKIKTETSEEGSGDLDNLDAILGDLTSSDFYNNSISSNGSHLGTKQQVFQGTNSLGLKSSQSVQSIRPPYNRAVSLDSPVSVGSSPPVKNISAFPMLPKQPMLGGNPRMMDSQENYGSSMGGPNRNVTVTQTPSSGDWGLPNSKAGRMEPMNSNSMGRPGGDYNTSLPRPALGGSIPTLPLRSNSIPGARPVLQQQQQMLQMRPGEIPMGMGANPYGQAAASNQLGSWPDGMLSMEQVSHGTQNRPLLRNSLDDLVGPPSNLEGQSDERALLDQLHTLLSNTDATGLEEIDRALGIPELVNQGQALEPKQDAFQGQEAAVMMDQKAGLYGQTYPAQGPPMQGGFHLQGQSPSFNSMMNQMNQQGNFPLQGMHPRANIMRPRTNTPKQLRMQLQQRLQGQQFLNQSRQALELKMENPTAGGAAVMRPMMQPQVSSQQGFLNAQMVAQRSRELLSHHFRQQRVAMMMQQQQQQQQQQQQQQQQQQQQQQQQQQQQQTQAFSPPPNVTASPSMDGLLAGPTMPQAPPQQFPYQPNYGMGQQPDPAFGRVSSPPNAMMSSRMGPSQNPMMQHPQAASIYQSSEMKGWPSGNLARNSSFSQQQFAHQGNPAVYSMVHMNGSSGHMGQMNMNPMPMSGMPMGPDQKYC
Sequence of Eukaryotic translation initiation factor 4E (P63073 whole entry): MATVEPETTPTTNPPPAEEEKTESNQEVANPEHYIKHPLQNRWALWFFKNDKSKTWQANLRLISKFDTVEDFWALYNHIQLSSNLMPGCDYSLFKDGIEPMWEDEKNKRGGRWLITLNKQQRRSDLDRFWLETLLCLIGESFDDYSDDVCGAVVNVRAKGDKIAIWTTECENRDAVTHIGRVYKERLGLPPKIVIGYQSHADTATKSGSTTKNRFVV

Usually EC50 stands for the concentration needed to bring the measured effect to its halfway point. Take `Cc1cc(NC(=O)c2ccc3[nH]c(C)c(C)c3c2)ccn1`: the EC50 in [1] was > 50 µM (active).
Take `CCOC(=O)c1ccc(CC(=O)c2oc3cc(O)ccc3c2C)o1`: the figures for the EC50 in [2] and in assay [3] were > 99 µM (inactive) and 81.2 µM (inactive), respectively.
Turning to `CCc1ccc(C2=NN(S(C)(=O)=O)C(c3cccs3)C2)cc1` (stereo unspecified), the EC50 in [2] and in assay [3] was > 99 µM (inactive) each time.
With `Cc1ccc(C23CC4CC(CC(CN)(C4)C2)C3)cc1`, the IC50 in assay [4] was 50 µM (inactive).
As to `C=CCN1C(=O)/C(=C2/Sc3ccccc3N2CC)SC1=S`, the EC50 in assay [5] is 9.69 µM (active); in [2], > 99 µM (inactive); in assay [6], 16.1 µM (active); in assay [3] it was 56.1 µM (inactive).
On to `CCCCOC(=O)Nc1nnc(SCCOc2ccc(C)cc2)s1`, for which, in [4], the IC50 is > 64 µM (inactive).
Turning to `N#CC(C(=O)NCc1ccccc1)c1nc2ccccc2nc1N1CCCC1` (stereo unspecified), the EC50 in [5] is > 300 µM (inconclusive); in assay [2], 4.64 µM (active); in assay [6], > 300 µM (inconclusive); in assay [3] it was > 99 µM (inactive).
Regarding `O=C(COc1ccc2ccccc2c1)NNC(=O)Cc1ccccc1`, the EC50 is 6.07 µM (active) in assay [7], 6.57 µM (active) in assay [8] and 5.17 µM (active) in [9].
Consider `O=C1c2ccccc2NC(c2cccc([N+](=O)[O-])c2)N1CCc1ccccc1` (stereo unspecified), for which, in assay [1], the EC50 is > 50 µM (active).
In general, AC50 refers to the concentration giving half of the maximal activity seen. On to `CCCCCc1nc2c(c(=O)c3ccccc3n2C)c(=O)n1C1CCCCCC1`, for which the AC50 in [10] was 3.56 µM (active); in assay [12], 5.56 µM (active); in assay [14] it was 42.3 µM (active); in assay [15] it was 8.21 µM (active); in the assay on INS1 it was 7.76 µM (active). In addition, the EC50 is 6.38 µM (active) in assay [11] and 7.59 µM (active) in assay [16]. In assay [13], the CC50 was 10.4 µM (active).
In the case of `Cc1ccc(NC(=O)c2ccccc2)s1`, the EC50 in assay [1] was > 50 µM (active).
As for `COC(=O)c1cc(NC(S)=Nc2cc(Cl)cc(Cl)c2)cc(C(=O)OC)c1`, the IC50 in [17] and in assay [18] was > 66 µM (inactive) in each case.
In the case of `Cc1[nH]c2ccc(C(=O)Nc3ccncc3)cc2c1C`, the EC50 in assay [1] is > 50 µM (active).
On to `c1cncc(CNC2CCCC2)c1`, for which the EC50 in [7], in assay [8] and in assay [9] was > 79.4 µM (not active) each time.
Take `COc1cc(NC(=O)c2ccccc2)c(OC)cc1NC(=O)Cc1ccc(Br)cc1`: the EC50 is 29.6 µM (inactive) in assay [2] and > 99 µM (inactive) in [3].
Turning to `Cc1cccc(NC(=O)Cn2cc(C(=O)C3CC3)c3ccccc32)c1C`, the AC50 in assay [12] was 3.05 µM (active); in assay [14], 66 µM (active); in [15] it was 2.39 µM (active).
With `O=C(CN1C(=O)/C(=C2\SC(=S)N(C3CCS(=O)(=O)C3)C2=O)c2ccccc21)Nc1ccc(F)cc1` (stereo unspecified), the IC50 in assay [19] was 3.55 µM (active).
Consider `Cn1cccc1-c1nc2cc(NC(=O)c3ccccc3)ccc2[nH]1`, for which the EC50 in assay [7], in assay [8] and in assay [9] was > 79.4 µM (not active) each time.
Take `CCc1nc2ccc(C(=O)Nc3nnc(C)s3)cc2nc1CC`: the EC50 in assay [7], in [8] and in assay [9] was > 79.4 µM (not active) throughout.
Regarding `O=C(Nc1ccc(F)cc1)C1CCC(CNc2c(N3CCCCC3)c(=O)c2=O)CC1` (stereo unspecified), the EC50 in [1] is > 50 µM (active).
With `CC(C)C(=O)N1C2CCC1CC(O)(c1ccc(F)cc1)C2` (stereo unspecified), the AC50 on Cytochrome P450 2C19 was 20 µM (inconclusive); at Cytochrome P450 1A2 it was 17.8 µM (inconclusive); on Cytochrome P450 3A4, 22.4 µM (inconclusive). For the same compound, the EC50 in assay [7], in [8] and in assay [9] was > 79.4 µM (not active) throughout.
Take `Cc1cc(C)n(-c2nc3nonc3nc2Nc2cccc(C)c2C)n1`: the EC50 in assay [2] and in assay [3] was > 99 µM (inactive) in each case.
Take `Cc1ccc(CSc2nc3c(cc2C#N)CCC3)cc1`: the EC50 is 42.7 µM (not active) in assay [7], 47.6 µM (not active) in assay [8] and 28.5 µM (not active) in assay [9].
Turning to `CCCN(CC(=O)Nc1ccccc1C)C(=O)COC(=O)CSc1ccc([N+](=O)[O-])cc1`, the IC50 in assay [17] and in assay [18] was > 66 µM (inactive) in each case.
Consider `O=C(Nc1ccc(S(=O)(=O)N2CCCC2)cc1)c1cccnc1`, for which, in assay [1], the EC50 is > 50 µM (active).
With `Cn1c(=O)c2c(ncn2CCNC2=NCCCCC2)n(C)c1=O`, the EC50 in [7], in assay [8] and in assay [9] was > 79.4 µM (not active) in each case.
With `Cc1cc(C(F)F)n2nc(C(=O)Nc3sc4c(c3C(N)=O)CCC4)nc2n1`, the IC50 in assay [19] was 40 µM (active).
On to `CC12CC3(C)CC(C)(C1)CC(C(=O)NC(=S)N1CCCC1)(C2)C3`, for which, in assay [4], the IC50 is 50 µM (inactive).

The values above are taken from ChEMBL document CHEMBL1201862, “PubChem BioAssay data set” (2004).
